US9249105B2, “Crystalline forms of an alkoxyimidazol-1-ylmethyl biphenyl carboxylic acid” (Theravance Biopharma R&D IP, LLC, priority 2010, dated 2016)
Counter-ions that a name gives are not always drawn.

Tests used:
[1] = Differential scanning calorimetry (thermal stability); format: physicochemical; conditions: heating ramp 10° C./min
Experimental: Differential scanning calorimetry (DSC) experiments were performed using a TA Instruments Model Q-100 module with a Thermal Analyst controller. Data were collected and analyzed using TA Instruments Universal Analysis software. A sample of each crystalline form was accurately weighed into a covered aluminum pan. After a 5 minute isothermal equilibration period at 5° C., the sample was heated using a linear heating ramp of 10° C./min from 0° C. to 200° C.

[2] = Dynamic moisture sorption (DMS) assessment; format: physicochemical; conditions: 25° C.
Experimental: Dynamic moisture sorption (DMS) measurements were performed for each crystalline form using a VTI atmospheric microbalance, SGA-100 system (VTI Corp., Hialeah, Fla. 33016). A weighed sample was used and the humidity was set at the ambient value at the start of the analysis. The DMS analysis consisted of a scan rate of 5% RH/step over the full humidity range of 5% RH to 90% RH. The DMS run was performed isothermally at 25° C.

[3] = Thermal stability on storage, purity by HPLC; format: physicochemical; conditions: 40° C. (open container), 75% relative humidity, one month; for Purity Change: HPLC area percentage (% AUC)
Experimental: Weighed samples of the crystalline materials were stored at 40° C. (open container) and 75% relative humidity, for one month. The samples were then analyzed by the following HPLC method:
Column: Agilent Zorbox SB-C18, 4.6×250 mm, 5 μm (Part No. 880975-902). Mobile Phase A: 80% H2O, 20% MeCN, 0.01% TFA. Mobile Phase B: 80% MeCN, 20% H2O, 0.01% TFA. Flow rate: 1 mL/min. Injection Volume: 20 μL. Detector: 250 nm.
The purity of the samples was determined by HPLC area percentage (% AUC).

[4] = Solubility in buffers over 24 hours; format: physicochemical; conditions: pH>3, room temperature, FIG. 16
Experimental: Samples of the crystalline materials were evaluated over a 24 hour period at several pH ranges. The following buffer systems were used: • HCl buffer pH @ 1.15 • HCl buffer pH @ 1.94 • Potassium biphthate buffer pH @ 2.97 • Acetate buffer pH @ 4.17 • Acetate buffer pH @ 5.16 • Phosphate buffer pH @ 6.04 • Phosphate buffer pH @ 7.0
Samples (7-8 mg) of the crystalline materials were combined with 2 mL of each of the buffers in a 5 mL glass vial. The vials were then mounted onto an automatic rotator and rotate for 24 hours at room temperature. The resulting suspensions were filtered using a 0.45 μm filter (PVDF membrane) into a clean vial for HPLC analysis.

AT1 receptor = target: T1, AT1 receptor (Homo sapiens, UniProt P30556); experiment: AT1 receptor binding (inhibitory constant)
T1 sequence (P30556 1-359): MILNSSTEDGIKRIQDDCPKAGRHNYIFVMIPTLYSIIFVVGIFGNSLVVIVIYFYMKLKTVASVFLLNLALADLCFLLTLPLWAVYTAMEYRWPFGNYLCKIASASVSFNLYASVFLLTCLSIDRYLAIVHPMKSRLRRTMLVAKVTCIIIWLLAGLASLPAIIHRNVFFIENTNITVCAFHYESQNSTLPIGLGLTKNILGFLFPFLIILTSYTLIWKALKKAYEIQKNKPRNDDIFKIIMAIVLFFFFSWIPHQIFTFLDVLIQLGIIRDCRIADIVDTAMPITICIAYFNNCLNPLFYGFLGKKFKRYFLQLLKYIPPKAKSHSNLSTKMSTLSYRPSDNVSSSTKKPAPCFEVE

[5] = Reslurrying of hemiedisylate salt form I and form II; format: physicochemical; conditions: EtOH/MTBE with or without water, room temperature
Experimental: (§1) Hemiedisylate salt form II (50 mg, 80 μmol) and hemiedisylate salt form I (50 mg, 80 μmol) were combined with a premixed solution of EtOH (420 μL) and MTBE (1.6 mL, 13 mmol). The mixture was capped and stirred at room temperature. The resulting solids were filtered and washed with dioxane to yield a solid (86 mg), which was determined to be hemiedisylate salt form II.
as §1, with “mmol). Water (20 μL) was added and the” for “mmol). The”, “solid (67” for “solid (86”

temperature below which no significant thermal decomposition is seen (DSC) [1]	weight gain, humidity range 5% RH up to 90% RH ([2]; 5% RH to 90% RH)	weight gain when exposed to up to 70% RH [2]	Purity Change [3]	solubility compared with the freebase [4]	Ki (AT1 receptor)	Compound	thermal stability on storage [3]	DMS moisture sorption/desorption behaviour ([2]; 5% RH to 90% RH)	relative stability of crystalline forms on reslurrying [5]
≥ 158 °C	about 0.38%	less than 0.26%	–	–	–	CCOc1nc(CC)c(CNC(=O)[C@@H](S)CC(C)C)n1Cc1ccc(-c2ccccc2C(=O)O)cc1F [hemiedisylate salt form I, Crystalline Hemiedisylate Salt Form I of 4′-{2-Ethoxy-4-ethyl-5-[((S)-2-mercapto-4-methylpentanoylamino)methyl]imidazol-1-ylmethyl}-3′-fluorobiphenyl-2-carboxylic Acid]	–	–	–
≥ 181 °C	about 0.97%	less than 0.68%	−0.1%	more soluble than the freebase	–	CCOc1nc(CC)c(CNC(=O)[C@@H](S)CC(C)C)n1Cc1ccc(-c2ccccc2C(=O)O)cc1F [heminapadisylate form, Crystalline Heminapadisylate Salt of 4′-{2-Ethoxy-4-ethyl-5-[((S)-2-mercapto-4-methylpentanoylamino)methyl]imidazol-1-ylmethyl}-3′-fluorobiphenyl-2-carboxylic Acid]	more stable than the previously known freebase form	–	–
–	–	–	–	–	≤ 100 nM	CCOc1nc(CC)c(CNC(=O)[C@@H](S)CC(C)C)n1Cc1ccc(-c2ccccc2C(=O)O)cc1F [compound of formula I, 4′-{2-ethoxy-4-ethyl-5-[((S)-2-mercapto-4-methylpentanoylamino)methyl]imidazol-1-ylmethyl}-3′-fluorobiphenyl-2-carboxylic acid]	–	–	–
–	–	–	−2.9%	–	–	CCOc1nc(CC)c(CNC(=O)[C@@H](S)CC(C)C)n1Cc1ccc(-c2ccccc2C(=O)O)cc1F [freebase form, 4′-{2-ethoxy-4-ethyl-5-[((S)-2-mercapto-4-methylpentanoylamino)methyl]imidazol-1-ylmethyl}-3′-fluorobiphenyl-2-carboxylic acid, reference compound]	–	–	–
≥ 140 °C	–	–	–	–	–	CCOc1nc(CC)c(CNC(=O)[C@@H](S)CC(C)C)n1Cc1ccc(-c2ccccc2C(=O)O)cc1F [mono-oxalate salt, Crystalline Mono-oxalate Salt of 4′-{2-Ethoxy-4-ethyl-5-[((S)-2-mercapto-4-methylpentanoylamino)methyl]imidazol-1-ylmethyl}-3′-fluorobiphenyl-2-carboxylic Acid]	–	picks up moisture gradually from 5% RH to 90% RH, and loses the moisture during drying segment	–
≥ 182 °C	about 0.16%	less than 0.10%	−0.3%	more soluble than the freebase	–	CCOc1nc(CC)c(CNC(=O)[C@@H](S)CC(C)C)n1Cc1ccc(-c2ccccc2C(=O)O)cc1F [hemiedisylate form II, Crystalline Hemiedisylate Salt Form II of 4′-{2-Ethoxy-4-ethyl-5-[((S)-2-mercapto-4-methylpentanoylamino)methyl]imidazol-1-ylmethyl}-3′-fluorobiphenyl-2-carboxylic Acid]	more stable than the previously known freebase form	–	more stable than crystalline hemiedisylate salt form I
